We go through 1 compound from PMC9004346, “Development of small cyclic peptides targeting the CK2α/β interface” (Chemical Communications (Cambridge, England), 2022).

*1 amine or outer side, *2 acyl side, *3 side chain or, on linkers, in order; H or OH if unused. Where a SMILES comes first, the peptide text is derived from it. Bridges are numbered along the chain shown (N, C = ends). [ ]: non-standard residue; d: D form. Trp(2-yl) = O=C([C@H](Cc1c([*:3])[nH]c2ccccc12)N[*:1])[*:2]; hCys = N[C@@H](CCS)C(=O)O

The data set is described as follows: Serum stability test. It is filed as in vitro ADME. To be noted: 20% human serum in PBS, 37 °C, monitored over 24 h. As to the method: 1.6.3 Serum stability test
500 μL of PBS buffer supplemented with 20% (v/v) of human serum was allocated into an Eppendorf tube and temperature kept at 37 °C for 15 minutes before commencing the experiment. 5 µL of the peptide from 10 mM stock solution in DMSO was added. Caffeine was added as an internal standard (10 μL of a 15 mg/mL solution in MQ water). At specific intervals, 50 µL of the reaction mixture was taken and quenched with 100 µL of a 1:1 mixture of 96% Ethanol:DMSO. The suspension was spun at 13400 g for 10 minutes. 100 μL of the supernatant was analysed using C-18 HPLC with an eluting gradient 5-95% MeCN (0.05% TFA) in water (0.05% TFA) over 15 minutes (90 μL injection volume).
Percentage of intact starting peptide was monitored over 24 h (calculated as the ratio of the area of […]
the peak corresponding to the intact peptide to the area of the peak of caffeine). The experiment was […]
1 M. M. Wiedmann, Y. S. Tan, Y. Wu, S. Aibara, W. Xu, H. F. Sore, C. S. Verma, L. Itzhaki, M.
Stewart, J. D. Brenton and D. R. Spring, Angew. Chemie Int. Ed., 2017, 56, 524–529.
3 G. T. Potter, G. C. Jayson, G. J. Miller and J. M. Gardiner, J. Org. Chem., 2016, 81, 3443–3446.
4 J. Iegre, P. Brear, D. J. Baker, Y. S. Tan, E. L. Atkinson, H. F. Sore, D. H. O’ Donovan, C. S. Verma,
7 C. Puig Duran, F. Albericio Palomera, M. Gongora Benitez, M. Paradis Bas, L. Miret Casals, I. […]

For `CC(=O)N[C@H]1CCSc2[nH]c3ccccc3c2C[C@@H](C(N)=O)NC(=O)[C@H](CCCCN)NC(=O)[C@H](Cc2ccccc2)NC(=O)CNC(=O)[C@H](Cc2ccc(O)cc2)NC(=O)[C@H](CC(C)C)NC(=O)[C@H](CCCNC(=N)N)NC1=O` [Peptide P8C9, (hC)C9RLYGFKWC9] (Ac-[hCys]RLYGFK[Trp(2-yl)]-NH2; thioether 1-8), the “Serum stability (in words)” value is listed as “fully stable in serum over 24 h”.
